Experimental data as given in US10456477B2, “Oligolactic acid conjugates and micelles with enhanced anticancer efficacy” (Wisconsin Alumni Research Foundation, priority 2016, dated 2019).
Converted amounts (≈) assume the structure as drawn. “And” between values parts separate entries of the source, which are not always exact repeats. Equal values may be shown once. Read-outs that look alike come from different tables or passages of the source. One block for each compound: values may come before it.

Experiments:
[1] = Drug loading efficiency, drug loading content and aqueous solubility of PEG-b-PLA micelles by RP-HPLC; assay type: physicochemical
Procedure: The polymeric film was dissolved by addition of sterile water or PBS (10 mM, pH 7.4), followed by centrifugation for 5 min at 13,000 rpm and sterile filtration (0.22 μm (Coring, N.Y.)).

[2] = Hydrodynamic diameter of PEG-b-PLA micelles by dynamic light scattering; assay type: physicochemical
Procedure: Proton nuclear magnetic resonance (^1H NMR) data were recorded on a Varian Unity-Inova two-channel 400 MHz NMR spectrometer (Palo Alto, Calif.) with regulated temperature at 25° C. Chemical shifts (δ) were reported in parts per million (ppm) relative to residual protonated solvent resonance at 7.26 ppm for CDCl3. Mass spectrometry data was obtained using the Waters LCT (ESI-TOF) in the Chemical Instrumentation Center in the Department of Chemistry, University of Wisconsin-Madison. Samples were sprayed from a 10 mM NH4OAc/CH3CN solution. Reverse-phase HPLC (RP-HPLC) analysis was carried out using a Shimadzu Prominence HPLC system (Shimadzu, Japan) equipped with an LC-20AT pump, a SIL-20AC HT autosampler, a CTO-20AC column oven, and a SPD-M20A diode array detector. Sample was separated by a Waters Symmetry Shield™ RP18 column (4.6 mm×250 mm, 5 μm, 100 Å). 10 μL of sample was injected at a flow rate of 0.8 mL/min, column temperature at 25° C., and UV detection wavelength at 227 nm. The separation of o(LA)n-PTX conversion products was done in gradient mode with organic phase containing 100% CH3CN as solvent A, and aqueous phase containing 100% milliQ water as solvent B. Gradient elution was employed as follows: 0 min, 50% solvent A and 50% solvent B; 35 min, 95% solvent A and 5% solvent B; and 40 min for equilibration. Hydrodynamic diameters of PEG-b-PLA micelles were measured by dynamic light scattering (DLS) using a Zetasizer Nano-ZS (Malvern Instruments Inc., UK) at 25° C. with a detection angle of […] and a He—Ne ion laser as the light source (4 mW, 633 nm). Prior to measurements, PEG-b-PLA micelle solutions were diluted with milliQ water or PBS (10 mM, pH 7.4) to afford the level of PEG-b-PLA at ˜0.1 mg/mL and 1 mL of each sample was placed into a disposable sizing cuvette (BRAND Polystyrene Cuvettes). The cumulant method was used to curve-fit the correlation function, and the z-average diameter and polydispersity index (PDI) of PEG-b-PLA micelles were calculated from the Stokes-Einstein equation and the slope of the correlation function, respectively. All measurements were performed in triplicate.

[3] = Physical stability of drug- or conjugate-loaded PEG-b-PLA micelles (precipitation); settings: for Stability: PEG-b-PLA micelles; for time until SEL precipitated out of PEG-b-PLA micelles: micelles containing unconjugated SEL alone
Procedure: Instead, loading efficiency of PTX was low, ca. 21%, and drug loading for PEG-b-PLA micelles leveled off at 11.2% drug loading.
SEL drug loading for PEG-b-PLA micelles was 1% with a very low drug loading efficiency of 5%. […] In contrast, the PEG-b-PLA micelles containing unconjugated SEL were unstable and SEL precipitated out within about 5 minutes.

[4] = In vitro release from PEG-b-PLA micelles (dialysis cassette); assay type: physicochemical
Procedure: Four dialysis cassettes were placed in 4 L PBS solution (10 mM, pH 7.4) on a Corning Hotplate Stirrer (Corning, N.Y.) at 37° C. […] At each time point, a sample of 100 μL was withdrawn, and the cassettes were replenished with 100 μL of fresh PBS solution (10 mM, pH 7.4). The external medium was replaced with 4 L of fresh buffer at 2, 4, 8, 12, 24 and 48 h to approximate sink conditions.

[5] = test system: human A549 non-small lung cancer cells; test: In vitro cytotoxicity, CellTiter-Blue Cell Viability Assay; assay type: cell-based; settings: free form, 72 h
Text: All chemicals were purchased from Sigma-Aldrich (St. Louis, Mo.) and used as received. Analytical grade organic solvents and all other reagents were purchased from Fisher Scientific (Pittsburgh, Pa.). PTX was purchased from LC Laboratories (Woburn, Mass.). PEG-b-PLA was purchased from Advanced Polymer Materials Inc. (Montreal, Canada): Mn of PEG and PLA was 4,000 and 2,200 g/mol, respectively; PDI 1.05. A549 human lung adenocarcinoma cells were purchased from ATCC (Manassas, Va.) and grown in RPMI 1640 medium supplemented with 10% fetal bovine serum (FBS), 100 IU/mL penicillin, 100 μg/mL streptomycin, and 2 mML-glutamine in 5% CO2 incubator at 37° C.
Each was added into the wells to attain a final concentrations of 0.1, 1, 10, 100, and 1000 nM. The final level of DMSO in the medium was <0.1% at all drug levels. Cells cultured with diluted DMSO or PBS in medium were used as controls. […] The medium in each well was aspirated, and 100 μL of 20% (v/v) CellTiter-Blue reagent in serum free RPMI medium was added, followed by incubation at 37° C. in 5% CO2 atmosphere for 1.5 h. Fluorescence intensity was measured by a SpectraMax M2 plate reader (Molecular Devices, CA) with excitation and emission at 560 and 590 nm, respectively. The half maximal inhibitory drug concentration (IC50) was determined by using GraphPad Prism version 5.00 for Windows (GraphPad Software, CA).

[6] = test system: A549 xenograft tumor model; test: In vivo antitumor efficacy in A549 xenograft tumor model; parameters: species or system female athymic nude mice; settings: PEG-b-PLA micelles, 20 mg/kg, weekly tail vein injection, 3 weekly injections and one week off x 3 cycles
Procedure: All animal experiments were conducted under the protocol approved by Institutional Animal Care and Use Committee in University of Wisconsin-Madison in accordance with institutional and NIH guidance for the Care and Use of Laboratory Animals. 6-8 week-old female athymic nude mice (20-25 g each) were acquired from laboratory animal resources at School of Medicine and Public Health, University of Wisconsin-Madison. Mice were housed in ventilated cages with free access to water and food and acclimated for 1 week prior tumor cell injection. A549 cells (2×10^6 cells in 100 μL of serum-free RPMI 1640 medium) were harvested from sub-confluent cultures after trypsinization and were injected subcutaneously into the right flank of each mouse. […] Drug conjugates were administered via tail vein for 3 weekly injections, followed by 1-week rest period, totaling 3 cycles over a 12 weeks period. Body weight and tumor volume were monitored over the course of study. Tumor volume was calculated using the formula: V=(a×b^2)/2, where V is tumor volume, a is tumor length, b is tumor width.

[7] = test system: A549 NSCLC cell line; test: IC50 values and combination index analysis of PTX, SEL and RAP alone and in combination; assay type: cell-based, human; settings: alone or combination at molar ratio PTX:SEL 2:3, PTX:RAP 2:1, SEL:RAP 3:1, PTX:SEL:RAP 2:3:1
Procedure: The cells were seeded into a 96-well plate at a seeding density of 1,500 cells/100 μL/well and cultured in RPMI 1640 medium at 37° C. in 5% CO2 incubator for 24 h. […] Each was added into the wells to attain a final concentrations of 0.1, 1, 10, 100, and 1000 nM. The final level of DMSO in the medium was <0.1% at all drug levels. Cells cultured with diluted DMSO or PBS in medium were used as controls. Drug treated cells were placed in an incubator at 5% CO2 at 37° C. for 72 h. The medium in each well was aspirated, and 100 μL of 20% (v/v) CellTiter-Blue reagent in serum free RPMI medium was added, followed by incubation at 37° C. in 5% CO2 atmosphere for 1.5 h. Fluorescence intensity was measured by a SpectraMax M2 plate reader (Molecular Devices, CA) with excitation and emission at 560 and 590 nm, respectively. The half maximal inhibitory drug concentration (IC50) was determined by using GraphPad Prism version 5.00 for Windows (GraphPad Software, CA).
In vitro anticancer activity of PTX, SEL, and RAP alone and in combination.

[8] = Table 1A, PEG-b-PLA micelles, drug to polymer ratio 1:10, initial level 1 mg, mean ± SD, n = 3
[9] = Table 2, PTX, SEL and RAP co-loaded as 3-in-1 micelle, initial level 1, 1.5, 0.5 mg, molar ratio 2:6:1, 21 mg PEG4000-b-PLA2200
[10] = Table 1B, PEG-b-PLA micelles, drug to polymer ratio 1:1
[11] = Table 1B, PEG-b-PLA micelles, drug to polymer ratio 1:5
[12] = Table 1B, PEG-b-PLA micelles, drug to polymer ratio 1:10
[13] = Table 1B, drug to polymer ratio 1:1
[14] = Table 1B, drug to polymer ratio 1:5
[15] = Table 1B, drug to polymer ratio 1:10
[16] = Table 1C, PEG-b-PLA micelles, drug to polymer ratio 1:5
[17] = Table 1C, drug to polymer ratio 1:5

solubility ([1]; PEG-b-PLA micelles in water, aqueous with cosolvent or surfactant or cyclodextrin, Table 1A, PEG-b-PLA micelles, drug to polymer ratio 1:10, initial level 1 mg, mean ± SD, n = 3, read-out: Apparent solubility): 900 µg/mL
solubility ([1]; PEG-b-PLA micelles in water, aqueous with cosolvent or surfactant or cyclodextrin, Table 1A, PEG-b-PLA micelles, drug to polymer ratio 3:5, initial level 6 mg, mean ± SD, n = 3, read-out: Apparent solubility): 1200 ± 100 µg/mL
Drug loading [1, 8]: 8.6% and 8.6 ± 1.1%
Drug loading efficiency [1, 8]: 93.8 ± 12.8%
Drug loading ([1]; Table 1A, PEG-b-PLA micelles, drug to polymer ratio 3:5, initial level 6 mg, mean ± SD, n = 3): 11.2% and 11.2 ± 1.1%
Drug loading [1, 9]: 4.3%
Loading efficiency [1, 9]: 100% and 104%
solubility ([1]; water, PTX without PEG-b-PLA micelles, read-out: water solubility): ~10 µg/mL (≈ 11.7 µM)
Particle size ([2]; Table 1A, drug to polymer ratio 1:10, initial level 1 mg, 10 mg PEG-b-PLA, mean ± SD, n = 3): 30.5 nm and 30.5 ± 0.3 nm
Particle size ([2]; Table 1A, drug to polymer ratio 3:5, initial level 6 mg, 10 mg PEG-b-PLA, mean ± SD, n = 3): 37.0 ± 5.7 nm
micelles precipitating in ([3]; PEG-b-PLA micelles at room temperature): less than 2 hours
precipitation of PTX during in vitro release ([4]; 9% drug loading, particle size 30 nm, PEG-b-PLA micelles): < 4 h
in vitro release from PEG-b-PLA micelles (in words) ([4]; PBS 10 mM, pH 7.4, 37° C., FIG. 4): rapidly released
IC50 [7]: 7.4 ± 1.2 nM
SMILES: CC(=O)O[C@H]1C(=O)[C@@]2(C)[C@H]([C@H](OC(=O)c3ccccc3)[C@]3(O)C[C@H](OC(=O)[C@H](O)[C@@H](NC(=O)c4ccccc4)c4ccccc4)C(C)=C1C3(C)C)[C@]1(OC(C)=O)CO[C@@H]1C[C@@H]2O [PTX, paclitaxel]
IC50 [5]: 2 nM
tumor growth / tumor volume [6]: tumor growth inhibition during treatment over 71 days and delayed tumor growth

solubility ([1]; PEG-b-PLA micelles, aqueous with cosolvent or surfactant or cyclodextrin, Table 1B, PEG-b-PLA micelles, drug to polymer ratio 1:1, read-out: Apparent solubility): 500 µg/mL
solubility ([1]; PEG-b-PLA micelles, aqueous with cosolvent or surfactant or cyclodextrin, Table 1B, PEG-b-PLA micelles, drug to polymer ratio 1:5, read-out: Apparent solubility): 900 µg/mL
solubility ([1]; PEG-b-PLA micelles, aqueous with cosolvent or surfactant or cyclodextrin, Table 1B, PEG-b-PLA micelles, drug to polymer ratio 1:10, read-out: Apparent solubility): 1400 µg/mL
Drug loading [1, 10]: 11.5%
Drug loading efficiency [1, 10]: 23%
Drug loading [1, 11]: 7.3%
Drug loading efficiency [1, 11]: 44.0%
Drug loading [1, 12]: 6.4%
Drug loading efficiency [1, 12]: 70.1%
Drug loading [1, 9]: 2.2%
Loading efficiency [1, 9]: 100% and 104.6%
Particle size [2, 13]: 59.5 ± 21.6 nm
Particle size [2, 14]: 36.2 ± 0.4 nm
Particle size [2, 15]: 37.7 ± 1.9 nm
Stability [3, 13]: <24 h
Stability [3, 14]: <24 h
Stability [3, 15]: <24 h
micelles released drug in ([3]; all PEG-b-PLA micelles containing unconjugated RAP): less than 24 hours
IC50 [7]: 320.6 ± 2.3 nM
SMILES: CO[C@H]1C[C@@H]2CC[C@@H](C)[C@@](O)(O2)C(=O)C(=O)N2CCCC[C@H]2C(=O)O[C@H]([C@H](C)C[C@@H]2CC[C@@H](O)[C@H](OC)C2)CC(=O)[C@H](C)/C=C(\C)[C@@H](O)[C@@H](OC)C(=O)[C@H](C)C[C@H](C)/C=C/C=C/C=C/1C [RAP, rapamycin]

drug loading, loaded in micelles with free paclitaxel and free rapamycin ([1]; 3-drug co-loading): greater than 6 wt %
Drug loading [1, 16]: 1%
Drug loading efficiency [1, 16]: 5% and 5.1%
Drug loading [1, 9]: 6.3%
Loading efficiency [1, 9]: 100% and 101.7%
solubility ([1]; aqueous with cosolvent or surfactant or cyclodextrin, Table 1C, PEG-b-PLA micelles, drug to polymer ratio 1:5, read-out: Apparent solubility): 100 µg/mL
drug loading, loaded alone in micelles ([1]; free selumetinib alone): about 1 wt %
Particle size [2, 17]: 60.6 ± 0.6 nm
Stability [3, 17]: <2 h
time until SEL precipitated out of PEG-b-PLA micelles [3]: ≤ 5 min
time until SEL precipitated out of PEG-b-PLA micelles ([3]; listed as selumetinib): about 5 minutes
IC50 [7]: 1729 ± 1.6 nM
SMILES: Cn1cnc2c(F)c(Nc3ccc(Br)cc3Cl)c(C(=O)NOCCO)cc21 [SEL, selumetinib]
